Test results: PMC11596610 (Molecules, 2024)
Read-outs that look alike come from different tables or passages of the source.

What was measured:
S. mansoni = assay: Drug assay in vivo in S. mansoni-infected mice; set-up: species or system mice (NMRI); details: single oral dose 200 mg/kg
Description: The in vivo study was carried out in accordance with Swiss national and cantonal regulations on animal welfare under the permission number 545. Female mice (NMRI strain; 3-week-old; weight ca. 20–22 g) were purchased from Charles River, Germany. Rodents were kept under environmentally controlled conditions (temperature ~25 °C; humidity ~70%; 12 h light, 12 h dark cycle) with free access to water and rodent diet, and acclimatized for one week before infection. […]. Untreated mice (n = 4) served as controls in all experiments. Two weeks post-treatment mice were dissected and all worms counted. Worm burden reductions were calculated.

[1] = system: S. mansoni newly transformed schistosomula (NTS); assay: Drug assay against S. mansoni NTS; type: cell-based, Schistosoma mansoni; details: for IC50: Schistosoma mansoni
Excerpt: Harvested S. mansoni cercariae (Liberian strain) obtained from infected Biomphalaria glabrata snails were mechanically transformed into newly transformed schistosomula (NTS) following standard procedures as described. Artesunate and praziquantel were previously tested in the drug assay against S. mansoni NTS [39]. […] Culture medium was composed of M199 medium (Gibco, Waltham MA, USA) supplemented with 5% Horse Serum (Gibco, Waltham MA, USA), 1% penicillin/streptomycin mixture (Invitrogen, Carlsbad, CA, USA, 100 U/mL) and 1% Mäser Mix. Each compound was tested in triplicate. NTS incubated with no more than 1% DMSO served as control. NTS were kept in the incubator at 37 °C and 5% CO2 for up to 72 h. After 24, 48 and 72 h, the condition of the NTS was microscopically evaluated.

[2] = system: P. falciparum strain NF54; assay: [3H]-hypoxanthine incorporation assay, antiplasmodial activity; type: cell-based; details: Plasmodium falciparum
Description: Compounds were dissolved in DMSO at 10 mM, serial dilutions prepared in hypoxanthine-free culture medium (7-step dilution series; 2-fold serial dilutions) and 100 μL aliquots were dispensed in duplicates into 96-well cell culture plates. […] After incubation for 48 h, 0.25 μCi of [^3H]-hypoxanthine was added per well and plates were incubated for an additional 24 h. Parasites were harvested onto glass-fiber filters using a Microbeta FilterMate cell harvester (Perkin Elmer, Waltham, MA, USA) and radioactivity was counted using a MicroBeta2 liquid scintillation counter (Perkin Elmer, Waltham, MA, USA).

[3] = Cytotoxicity assay with the rat L6 cell line (resazurin); type: cell-based
Description: Cultures were maintained at 37 °C in an atmosphere of 5% CO2. […] Plates were incubated at 37 °C under a 5% CO2 atmosphere for 24 h. After that, compounds were dissolved in DMSO (10 mM or 10 mg/mL), serial drug dilutions of eleven 3-fold dilution steps covering a range from 100 to 0.002 μg/mL or 100 to 0.002 µM were prepared, and the plates incubated at 37 °C under 5% CO2 for 70 h. […] The results were expressed as percentage of the untreated controls. Fifty percent inhibitory concentrations (IC50) were estimated by linear interpolation.

S. mansoni adult worms = assay: Drug assay against ex vivo S. mansoni adult worms; type: cell-based, Schistosoma mansoni; details: for IC50: Schistosoma mansoni
Description: Female NMRI mice (age 3 weeks, weight ca. 14–20 g) were purchased from Charles River (Sulzfeld, Germany). […] To obtain adult schistosomes, NMRI mice were infected subcutaneously with 80 to 100 cercariae. After 49 days, the mice were euthanized with CO2 and the worms collected from the hepatic portal and mesenteric veins. […] Each compound was tested in duplicate. Artesunate and praziquantel were previously tested in the drug assay against S. mansoni adult worms. Schistosomes incubation with no more than 1% DMSO served as control. Worms were kept in an incubator at 37 °C and 5% CO2 for up to 72 h. After 24, 48 and 72 h, the condition of the worms was microscopically evaluated and scored as described above.

[4] = P. falciparum NF54, 3H-hypoxanthine incorporation, mean of 2 independent determinations, read-out: NF54 IC50

SMILES	IC50 ([1]; 24 h)	IC50 ([1]; 48 h)	IC50 ([1]; 72 h)	Effect in % ± SD ([1]; test conc. 1 µM, 24 h)	Effect in % ± SD ([1]; test conc. 1 µM, 48 h)	Effect in % ± SD ([1]; test conc. 1 µM, 72 h)	Effect in % ± SD ([1]; test conc. 10 µM, 24 h)	Effect in % ± SD ([1]; test conc. 10 µM, 48 h)	Effect in % ± SD ([1]; test conc. 10 µM, 72 h)	IC50 [2, 4]	CC50 at 70 h ([3]; rat)	IC50 (S. mansoni adult worms; 24 h)	IC50 (S. mansoni adult worms; 48 h)	IC50 (S. mansoni adult worms; 72 h)	Effect in % ± SD (S. mansoni adult worms; test conc. 10 µM, 24 h)	Effect in % ± SD (S. mansoni adult worms; test conc. 10 µM, 48 h)	Effect in % ± SD (S. mansoni adult worms; test conc. 10 µM, 72 h)	Effect in % ± SD (S. mansoni adult worms; test conc. 25 µM, 24 h)	Effect in % ± SD (S. mansoni adult worms; test conc. 25 µM, 48 h)	Effect in % ± SD (S. mansoni adult worms; test conc. 25 µM, 72 h)	also measured
CC1=C(Cc2ccc(C(F)(F)F)cc2)C(=O)C2(C)CC=CC=C2C1=O (racemic) [Product 1, (±)-2,4a-dimethyl-3-(4-(trifluoromethyl)benzyl)-4a,5-dihydronaphthalene-1,4-dione]	2.7 µM	2.4 µM	2 µM	18.87 ± 1.9%	26.42 ± 1.9%	28.57 ± 2%	34.59 ± 1.3%	35.35 ± 0.7%	71.70 ± 9.4%	1.85 ± 0.458 µM	22.5 µM	0.8 µM	0.2 µM	0.6 µM	53.7 ± 0.9%	65.65 ± 3.1%	66.7 ± 2.1%	70.4 ± 3.7%	73.15 ± 2.8%	88.9 ± 0%	Total WBR (worm burden reduction) (S. mansoni): 15.7%; Cures (S. mansoni; cured/treated): 0/4; Mean Number of Worms (SD) Females (S. mansoni; two weeks post-treatment): 10.8 (1.0); Mean Number of Worms (SD) Liver (S. mansoni; two weeks post-treatment): 0; Mean Number of Worms (SD) Mesenteric Veins (S. mansoni; two weeks post-treatment): 21.5 (1.9); Mean Number of Worms (SD) Total (S. mansoni; two weeks post-treatment): 21.5 (1.9); Effect in % ± SD ([1]; test conc. 25 µM, 24 h): 100 ± 0%; Effect in % ± SD ([1]; test conc. 25 µM, 48 h): 100 ± 0%; Effect in % ± SD ([1]; test conc. 25 µM, 72 h): 100 ± 0%; Effect in % ± SD (S. mansoni adult worms; test conc. 1 µM, 24 h): 53.3 ± 0%; Effect in % ± SD (S. mansoni adult worms; test conc. 1 µM, 48 h): 58.3 ± 0%; Effect in % ± SD (S. mansoni adult worms; test conc. 1 µM, 72 h): 59.15 ± 0.8%
CC1=C(Cc2ccc(C(F)(F)F)cc2)C(=O)C2=CC=CCC2(C)C1=O (racemic) [Product 2, (±)-3,4a-dimethyl-2-(4-(trifluoromethyl)benzyl)-4a,5-dihydronaphthalene-1,4-dione]	17.4 µM	8.5 µM	1.7 µM	20.75 ± 0%	32.08 ± 0%	36.73 ± 2%	34.52 ± 6.2%	51.43 ± 8.6%	86.79 ± 1.9%	2.39 ± 0.825 µM	25.6 µM	22.7 µM	17.3 µM	15.2 µM	42.75 ± 1%	48.05 ± 2.9%	50 ± 0%	44.4 ± 0%	49.05 ± 0.9%	51.9 ± 0%	
CCN(CC)CCCC(C)Nc1ccnc2cc(Cl)ccc12 (stereo not shown) [CQ diphosphate, Chloroquine diphosphate, reference compound]																					IC50 ([2]; NF54, read-out: NF54 IC50): 4 ng/mL
COc1cc([C@@H]2c3cc4c(cc3[C@H](O)[C@H]3COC(=O)[C@H]23)OCO4)cc(OC)c1OC [Podophyllotoxin, podophyllotoxin, reference compound]																					CC50 at 70 h ([3]; rat L6 cells, 70 h incubation, resazurin, read-out: L6 CC50): 0.01 µM
C[C@H]1[C@H](OC(=O)CCC(=O)O)O[C@@H]2O[C@@]3(C)CC[C@H]4[C@H](C)CC[C@@H]1[C@@]24OO3 [artesunate, reference compound]																					IC50 ([2]; P. falciparum NF54, reference compounds, values printed in ng/mL, read-out: NF54 IC50): 1.52 ng/mL
